This is an account of results in patent US10730870B2, “Compounds and methods for the enhanced degradation of targeted proteins” (Arvinas, Inc., priority 2015, dated 2020).

Some results are limits rather than exact numbers.

For the assay, the target named is VHL (Homo sapiens (Human), UniProt P40337). Put plainly: VHL fluorescence polarization (FP) competition assay. The format is binding.

Turning to `COc1cccc2c1C(=O)N([C@H](C(=O)N1C[C@H](O)C[C@H]1C(=O)NCc1ccc(-c3scnc3C)cc1)C(C)C)C2` [Example 15, (2S,4R)-4-hydroxy-1-((S)-2-(7-methoxy-1-oxoisoindolin-2-yl)-3-methylbutanoyl)-N-(4-(4-methylthiazol-5-yl)benzyl)pyrrolidine-2-carboxamide], the IC50 by setting is: (0.25% in DMSO) 1220 nM; (1% in DMSO) 24500 nM; (10% in DMSO) 81900 nM.
`CC(C)[C@@H](C(=O)N1C[C@H](O)C[C@H]1C(=O)NCc1ccc(-c2ccnn2C)cc1)N1Cc2ccccc2C1=O` [Example 92, (2S,4R)-4-hydroxy-N-(4-(1-methyl-1H-pyrazol-5-yl)benzyl)-1-((S)-3-methyl-2-(1-oxoisoindolin-2-yl)butanoyl)pyrrolidine-2-carboxamide] showed a concentration for half-maximal inhibition (IC50) (1% in DMSO) of 1650 nM. This lies in the single-digit micromolar range.
Take `CC(C)[C@@H](C(=O)N1C[C@H](O)C[C@H]1C(=O)NCc1ccc(Br)cc1)N1Cc2ccccc2C1=O` [Example 23, (2S,4R)—N-(4-bromobenzyl)-4-hydroxy-1-((S)-3-methyl-2-(1-oxoisoindolin-2-yl)butanoyl)pyrrolidine-2-carboxamide]: the IC50 by setting is: (0.25% in DMSO) 1140 nM; (1% in DMSO) 2510 nM; (10% in DMSO) 6040 nM.
The molecule `Cc1ncsc1-c1ccc(CNC(=O)[C@@H]2C[C@@H](O)CN2C(=O)[C@H](C2CCCC2)N2Cc3ccccc3C2=O)cc1` [Example 38, (2S,4R)-1-((S)-2-cyclopentyl-2-(1-oxoisoindolin-2-yl)acetyl)-4-hydroxy-N-(4-(4-methylthiazol-5-yl)benzyl)pyrrolidine-2-carboxamide] registered an IC50 (0.25% in DMSO) of 2190 nM, an IC50 (1% in DMSO) of 758 nM and a half-inhibitory concentration (IC50) (10% in DMSO) of 1090 nM.
In the case of `CC(C)[C@@H](C(=O)N1C[C@H](O)C[C@H]1C(=O)NCc1ccc(C2CCOCC2)cc1)N1Cc2ccccc2C1=O` [Example 118, (2S,4R)-4-hydroxy-1-((S)-3-methyl-2-(1-oxoisoindolin-2-yl)butanoyl)-N-(4-(tetrahydro-2H-pyran-4-yl)benzyl)pyrrolidine-2-carboxamide], the IC50 (1% in DMSO) turned out to be 330000 nM.
As to `Cc1ncsc1-c1ccc(CNC(=O)[C@@H]2CC(=O)CN2C(=O)[C@H](C(C)C)N2Cc3ccccc3C2=O)cc1` [Example 61, (S)-1-((S)-3-methyl-2-(1-oxoisoindolin-2-yl)butanoyl)-N-(4-(4-methylthiazol-5-yl)benzyl)-4-oxopyrrolidine-2-carboxamide], the “VHL FP Assay IC50” value (1% in DMSO) is “Not Active” and the “VHL FP Assay IC50” value (10% in DMSO) is recorded as “Not Active”.
Under “1% in DMSO”, `Cc1cc(C(C)(C)C(=O)N2C[C@H](O)C[C@H]2C(=O)NCc2ccc(-c3scnc3C)cc2)on1` [Example 140, (2S,4R)-4-hydroxy-1-(2-methyl-2-(3-methylisoxazol-5-yl)propanoyl)-N-(4-(4-methylthiazol-5-yl)benzyl)pyrrolidine-2-carboxamide] gave a concentration for half-maximal inhibition (IC50) of 157000 nM.
Same read-out and setting: then `COC1=CC(=O)N([C@H](C(=O)N2C[C@H](O)C[C@H]2C(=O)NCc2ccc(-c3scnc3C)cc2)C(C)C)C1` [Example 111, (2S,4R)-4-hydroxy-1-((S)-2-(4-methoxy-2-oxo-2,5-dihydro-1H-pyrrol-1-yl)-3-methylbutanoyl)-N-(4-(4-methylthiazol-5-yl)benzyl)pyrrolidine-2-carboxamide], with 859 nM.
As for `Cc1ncsc1-c1ccc(CNC(=O)[C@@H]2C[C@@H](O)CN2C(=O)[C@@H](NC(=O)CC(C)C)C(C)(C)C)cc1` [Example 18, (2S,4R)-1-((S)-3,3-dimethyl-2-(3-methylbutanamido)butanoyl)-4-hydroxy-N-(4-(4-methylthiazol-5-yl)benzyl)pyrrolidine-2-carboxamide], the IC50 turned out to be 5500 nM (0.25% in DMSO), 855 nM (1% in DMSO) and 2720 nM (10% in DMSO).
On to `Cc1ncoc1-c1ccc(CNC(=O)[C@@H]2C[C@@H](O)CN2C(=O)[C@H](C(C)C)N2Cc3ccccc3C2=O)cc1` [Example 133, (2S,4R)-4-hydroxy-1-((S)-3-methyl-2-(1-oxoisoindolin-2-yl)butanoyl)-N-(4-(4-methyloxazol-5-yl)benzyl)pyrrolidine-2-carboxamide], for which the IC50 (1% in DMSO) came to 1640 nM.
`Cc1cnccc1-c1ccc(CNC(=O)[C@@H]2C[C@@H](O)CN2C(=O)[C@H](C(C)C)N2Cc3ccccc3C2=O)cc1` [Example 80, (2S,4R)-4-hydroxy-1-((S)-3-methyl-2-(1-oxoisoindolin-2-yl)butanoyl)-N-(4-(3-methylpyridin-4-yl)benzyl)pyrrolidine-2-carboxamide] returned an IC50 (1% in DMSO) of 22400 nM and an IC50 (10% in DMSO) of 38900 nM.
As to `Cc1ncsc1-c1ccc(CNC(=O)[C@@H]2C[C@@H](O)CN2C(=O)[C@H](C(C)C)N2Cc3ccc(Cl)cc3C2=O)cc1` [Example 74, (2S,4R)-1-((S)-2-(6-chloro-1-oxoisoindolin-2-yl)-3-methylbutanoyl)-4-hydroxy-N-(4-(4-methylthiazol-5-yl)benzyl)pyrrolidine-2-carboxamide], the half-maximal inhibitory concentration (IC50) (1% in DMSO) was found to be 450 nM and the IC50 (10% in DMSO) was determined as 264 nM.
`Cc1ncsc1-c1ccc(CNC(=O)[C@@H]2C[C@@H](O)CN2C(=O)[C@H](C(C)C)N2Cc3cccc(F)c3C2=O)cc1` [Example 8, (2S,4R)-1-((S)-2-(7-fluoro-1-oxoisoindolin-2-yl)-3-methylbutanoyl)-4-hydroxy-N-(4-(4-methylthiazol-5-yl)benzyl)pyrrolidine-2-carboxamide]: the half-inhibitory concentration (IC50) (0.25% in DMSO) was 3040 nM, the 50% inhibitory concentration (IC50) (1% in DMSO) was 619 nM and the 50% inhibitory concentration (IC50) (10% in DMSO) turned out to be 1330 nM.
`Cc1ncsc1-c1ccc(CNC(=O)[C@@H]2C[C@@H](O)CN2C(=O)[C@H](C(C)C)N2Cc3cccc(Br)c3C2=O)cc1` [Example 42, (2S,4R)-1-((S)-2-(7-bromo-1-oxoisoindolin-2-yl)-3-methylbutanoyl)-4-hydroxy-N-(4-(4-methylthiazol-5-yl)benzyl)pyrrolidine-2-carboxamide]: the 50% inhibitory concentration (IC50) is 4950 nM (1% in DMSO) and 15700 nM (10% in DMSO).
For the molecule `Cc1ncsc1-c1ccc(CNC(=O)[C@@H]2C[C@@H](O)CN2C(=O)[C@H](C(C)C)N2Cc3cc(C#N)ccc3C2=O)cc1` [Example 34, (2S,4R)-1-((S)-2-(5-cyano-1-oxoisoindolin-2-yl)-3-methylbutanoyl)-4-hydroxy-N-(4-(4-methylthiazol-5-yl)benzyl)pyrrolidine-2-carboxamide], the IC50 is, setting by setting: (0.25% in DMSO) 2120 nM; (1% in DMSO) 660 nM; (10% in DMSO) 1180 nM.
The molecule `CC[C@H](C)[C@H](NCCc1ccccc1)C(=O)N1C[C@H](O)C[C@H]1C(=O)NCc1ccc(-c2scnc2C)cc1` [Example 104, (2S,4R)-4-hydroxy-1-((2S,3S)-3-methyl-2-(phenethylamino)pentanoyl)-N-(4-(4-methylthiazol-5-yl)benzyl)pyrrolidine-2-carboxamide] displayed an IC50 (1% in DMSO) of over 10000 nM.
For `CSC[C@@H](C(=O)N1C[C@H](O)C[C@H]1C(=O)NCc1ccc(-c2scnc2C)cc1)N1Cc2ccccc2C1=O` [Example 37, (2S,4R)-4-hydroxy-N-(4-(4-methylthiazol-5-yl)benzyl)-1-((R)-3-(methylthio)-2-(1-oxoisoindolin-2-yl)propanoyl)pyrrolidine-2-carboxamide], the IC50 is, setting by setting: (0.25% in DMSO) 1900 nM; (1% in DMSO) 20600 nM; (10% in DMSO) 7410 nM.
With `CO/N=C(/NCc1ccc(-c2scnc2C)cc1)[C@@H]1C[C@@H](O)CN1C(=O)[C@H](C(C)C)N1Cc2ccccc2C1=O` [Example 120, (2S,4R,E)-4-hydroxy-N′-methoxy-1-((S)-3-methyl-2-(1-oxoisoindolin-2-yl)butanoyl)-N-(4-(4-methylthiazol-5-yl)benzyl)pyrrolidine-2-carboximidamide], the half-maximal inhibitory concentration (IC50) (1% in DMSO) came out at 15500 nM.
Molecule `Cc1ncsc1-c1ccc(CNC(=O)[C@@H]2C[C@@H](O)CN2C(=O)[C@H](C(C)C)N2Cc3c(Cl)cccc3C2=O)cc1` [Example 68] returned an IC50 (1% in DMSO) of 972 nM and an IC50 (10% in DMSO) of 668 nM.
For the setting “10% in DMSO”, `CC(C)[C@@H](C(=O)N1C[C@H](O)C[C@H]1C(=O)NCc1ccc(C2(O)COC2)cc1)N1Cc2ccccc2C1=O` [Example 127, (2S,4R)-4-hydroxy-N-(4-(3-hydroxyoxetan-3-yl)benzyl)-1-((S)-3-methyl-2-(1-oxoisoindolin-2-yl)butanoyl)pyrrolidine-2-carboxamide] gave an IC50 of 406000 nM.
Take `CC(C)[C@@H](C(=O)N1C[C@H](O)C[C@H]1C(=O)NCc1ccc(-c2ncon2)cc1)N1Cc2ccccc2C1=O` [Example 101, (2S,4R)—N-(4-(1,2,4-oxadiazol-3-yl)benzyl)-4-hydroxy-1-((S)-3-methyl-2-(1-oxoisoindolin-2-yl)butanoyl)pyrrolidine-2-carboxamide]: the IC50 (1% in DMSO) worked out at 4390 nM.
Regarding `Cc1ncsc1-c1ccc(CNC(=O)[C@@H]2C[C@@H](O)CN2C(=O)C2(N3Cc4ccccc4C3=O)CCC2)cc1` [Example 55, (2S,4R)-4-hydroxy-N-(4-(4-methylthiazol-5-yl)benzyl)-1-(1-(1-oxoisoindolin-2-yl)cyclobutanecarbonyl)pyrrolidine-2-carboxamide], the half-inhibitory concentration (IC50) (1% in DMSO) was 115000 nM and the IC50 (10% in DMSO) amounted to 461000 nM.
Under “1% in DMSO”, `CC(C)[C@@H](C(=O)N1C[C@H](O)C[C@H]1C(=O)NCc1ccc(C2CCC2)cc1)N1Cc2ccccc2C1=O` [Example 114, (2S,4R)—N-(4-cyclobutylbenzyl)-4-hydroxy-1-((S)-3-methyl-2-(1-oxoisoindolin-2-yl)butanoyl)pyrrolidine-2-carboxamide] had an IC50 of 47300 nM.
With `CSC[C@H](NC(=O)CCC(C)C)C(=O)N1C[C@H](O)C[C@H]1C(=O)NCc1ccc(-c2scnc2C)cc1` [Example 22, (2S,4R)-4-hydroxy-1-((R)-2-(4-methylpentanamido)-3-(methylthio)propanoyl)-N-(4-(4-methylthiazol-5-yl)benzyl)pyrrolidine-2-carboxamide], the IC50 is, setting by setting: (1% in DMSO) 6250 nM; (10% in DMSO) 8290 nM.
For `CC(C)[C@@H](C(=O)N1C[C@H](O)C[C@H]1C(=O)NCc1ccc(-c2scnc2Br)cc1)N1Cc2ccccc2C1=O` [Example 1, (2S,4R)—N-(4-(4-bromothiazol-5-yl)benzyl)-4-hydroxy-1-((S)-3-methyl-2-(1-oxoisoindolin-2-yl)butanoyl)pyrrolidine-2-carboxamide], in that order: 2380 nM and 2280 nM.
